The record followed here is ChEMBL document CHEMBL1159339, “Oxygenated analogues of gorgosterol and ergosterol from the soft coral Capnella lacertiliensis” (2003).

Test [1] has as its target Tyrosine-protein kinase Lck (Homo sapiens) (UniProt P06239). Kind of test: Inhibition of p56 LCK at 200 ug/ml. Details: scale not given: the % may be the effect or the level left.
For test [2], the system named is Microbotryum violaceum. Kind of test: Antimicrobial activity against Microbotryum violaceum at 10 ug. The conditions noted are these: read-out: IZ. It counts as functional.
For test [3], the system named is Microbotryum violaceum. Nature of the test: Antimicrobial activity against Microbotryum violaceum at 20 ug. The class given is functional. The conditions noted are these: read-out: IZ.
Test [4] relates to Aspergillus pseudoglaucus. Nature of the test: Antimicrobial activity against Eurotium repens at 20 ug. The conditions noted are these: read-out: IZ. It counts as functional.
The test system of test [5] is Microbotryum violaceum. Nature of the test: Antimicrobial activity against Microbotryum violaceum at 25 ug. The class given is functional. As to conditions: read-out: IZ.
The subject of test [6] is Aspergillus pseudoglaucus. Nature of the test: Antimicrobial activity against Eurotium repens at 10 ug. The class given is functional. The conditions noted are these: read-out: IZ.

Chain of Tyrosine-protein kinase Lck (Homo sapiens) (P06239 2-509 limits assumed): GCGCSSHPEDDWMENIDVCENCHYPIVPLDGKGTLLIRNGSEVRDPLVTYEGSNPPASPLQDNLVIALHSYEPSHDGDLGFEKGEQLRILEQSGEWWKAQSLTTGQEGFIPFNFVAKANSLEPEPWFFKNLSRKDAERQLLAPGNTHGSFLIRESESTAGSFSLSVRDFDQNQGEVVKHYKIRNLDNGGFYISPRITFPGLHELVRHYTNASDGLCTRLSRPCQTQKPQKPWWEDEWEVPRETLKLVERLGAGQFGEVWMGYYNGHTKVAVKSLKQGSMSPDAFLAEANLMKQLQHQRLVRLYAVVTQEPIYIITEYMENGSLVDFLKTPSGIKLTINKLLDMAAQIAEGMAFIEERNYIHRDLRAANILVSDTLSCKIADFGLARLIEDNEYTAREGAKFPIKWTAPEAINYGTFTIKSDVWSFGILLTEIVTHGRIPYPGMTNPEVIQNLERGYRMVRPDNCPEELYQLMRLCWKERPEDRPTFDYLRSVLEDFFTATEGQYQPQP

Consider `CC(=O)O[C@@H]1C[C@H]2[C@@H](CC=C3C[C@@H](O)CC[C@@]32C)[C@@H]2CC[C@H]([C@H](C)CC(O)[C@H](C)C(C)C)[C@@]12C` (some centres undefined), for which, in test [1], the Activity amounted to 42%. Further, in the test with Microbotryum violaceum [2], the zone of inhibition at 10 µg/disc was 3 mm.
As for `CC(=O)O[C@@H]1C[C@H]2[C@@H]([C@H](O)C=C3C[C@@H](O)CC[C@@]32C)[C@@H]2CC[C@H]([C@H](C)[C@H]3C[C@]3(C)[C@H](C)C(C)C)[C@@]12C`, the zone of inhibition at 20 µg/disc in the test on Microbotryum violaceum [3] was 1 mm; in test [4], 2 mm.
Regarding `CC(=O)O[C@@H]1[C@H](O)[C@H]2[C@@H](CC=C3C[C@@H](O)CC[C@@]32C)[C@@H]2CC(O)[C@H]([C@H](C)CC[C@H](C)C(C)C)[C@@]12C` (some centres undefined), the zone of inhibition at 25 µg/disc with Microbotryum violaceum [5] came to 1 mm.
Consider `CC(=O)O[C@@H]1C[C@H]2[C@@H]([C@H](O)C=C3C[C@@H](O)CC[C@@]32CO)[C@@H]2CC[C@H]([C@H](C)[C@H]3C[C@]3(C)[C@H](C)C(C)C)[C@@]12C`, for which the zone of inhibition at 10 µg/disc with Microbotryum violaceum [2] worked out at 2 mm.
Take `CC(=O)O[C@@H]1[C@H]2[C@@H](CC=C3C[C@@H](O)CC[C@@]32C)[C@@H]2CC(O)[C@H]([C@H](C)CC[C@H](C)C(C)C)[C@@]2(C)[C@@H]1O` (some centres undefined): in test [1], the Activity was 47%. Besides, the values for the zone of inhibition at 10 µg/disc (in the test on Microbotryum violaceum [2]; in test [6]) were 3 mm and 2 mm, respectively.
